Experimental data: EP1952812A1, “Drug for treating thalessemia, falciform anemia and all other forms of anemia treatable therewith” (Universita' Degli Studi di Ferrara, priority 2007, dated 2008)

Experiments:
gamma-globin mRNA = gamma-globin mRNA production by quantitative RT-PCR in human erythroid precursors isolated from peripheral blood (two-step Fibach culture); assay type: cell-based; settings: for gamma-globulin mRNA: ratio of mRNA content in UVA-treated cells to that of UVA-untreated cells, cells treated for 6 days
From the text: To verify if treatment with 8-meethoxypsoralen and trimethylangelicin photoactivated with UVA light was able to stimulate mRNA production for gamma-globin in human erythroid precursors isolated from peripheral blood, the method used was that described by Fibach et al. (Fibach E. Hemoglobin, 22: 445-458, 1998; Fibach E, Burke KP, Schechter AN, Noguchi CT & Rodgers GP. Blood, 81: 1630-1635, 1993). This method comprises two steps: the cells isolated from peripheral blood of a healthy subject or affected with a hemopoietic pathology, such as falciform anemia or beta-thalessemia, are seeded in culture medium to which 10% of conditioned medium deriving from the bladder carcinoma cell line 5637 is added. The second step consists of cultivating the isolated cells in a suitable culture medium to which erythropoietin hormone, 30% of bovine fetal serum, 2-mercapto-ethanol, albumin, glutamine and desametasone are added to enable proliferation and maturing of erythroid stem cells. In this step the cells can be treated with potential HbF inducers.
The gamma-globin mRNA production level is much higher than that encountered using hydroxyurea as inducer (Fibach E. Hemoglobin, 22: 445-458, 1998; Fibach E, Burke KP, Schechter AN, Noguchi CT & Rodgers GP. Blood, 81: 1630-1635, 1993).

K562 human cell line = assay: Erythroid differentiation of K562 cells (benzidine positivity), with or without UVA photoactivation; assay type: cell-based; settings: percentage of K562 cells positive to benzidine
Protocol: The evaluation of the biological activity of the treatment with psoralens photoactivated with UVA light was conducted by examining the capacity of these molecules to modulate the gamma-globin gene expression in the K562 human cell line, which is able to differentiate in the erythroid sense by expressing the gamma-globin genes if subjected to treatment with biological response modifiers suitable for the purpose (Lampronti I., Bianchi N Borgatti M., Fibach E.,Prus E.,Gambari R. Eur J Haematology 71 189-195 2003, Bianchi N, Ongaro F, Chiarabelli C, Gualandi L, Mischiati C, Bergamini P, Gambari R. Biochem Pharmacol, 60:31-40, 2000;Bianchi N, Osti F, Rutigliano C, Ginanni Corradini F, Borsetti E, Tomassetti M, Mischiati C, Feriotto G and Gambari R, British Journal of Haematology, 104:258-263, 1999).
The differentiation level was evaluated by analyzing the cell positivity to benzidine (Lampronti I., Bianchi N., Borgatti M., Fibach E., Prus E., Gambari R. Eur J Haematology 71 189-195 2003,).
The gamma-globin coding gene expression was evaluated by quantitative RT-PCR (reverse transcriptase PCR) (Lampronti I., Bianchi N Borgatti M., Fibach E.,Prus E.,Gambari R. Eur J Haematology. 71 189-195 2003) Some of the data obtained are reported in Table 1. As can be easily noted, treatment with different furocoumarin derivatives photoactivated with UVA light are able to induce an increase in the percentage of cells positive to benzidine (60-85% of the treated cells, compared with 5-17% of the K562 control cells treated with furocoumarin derivatives in the absence of UVA light). […] In the control not treated with furocoumarin derivatives, erythrolid differentiation is low (4-6%) both in the absence and in the presence of UVA light.

[1] = Homo sapiens, light or radiation study, 144 h, read-out: gamma-globin mRNA

Structure (SMILES)	fold induction at 0.25 µM (gamma-globin mRNA; [1])	fold induction at 1 µM (gamma-globin mRNA; [1])	Erythroid differentiation with UVA (%) (K562 human cell line; concentration 0.25 µM)	Erythroid differentiation without UVA (%) (K562 human cell line; concentration 0.25 µM)	Erythroid differentiation with UVA (%) (K562 human cell line; concentration 0.50 µM)	Erythroid differentiation without UVA (%) (K562 human cell line; concentration 0.50 µM)	gamma-globulin mRNA (gamma-globin mRNA; concentration 0.10 µM)	gamma-globulin mRNA (gamma-globin mRNA; concentration 0.50 µM)
COc1c2occc2cc2ccc(=O)oc12 [Compound 8-MOP, 8-methoxypsoralen, reference compound]	2.76	18.5	65%	17%	–	–	–	–
O=c1ccc2ccc3occc3c2o1 [angelicin]	–	–	–	–	60%	6%	–	–
Cc1cc(=O)oc2c1cc(C)c1occ(C)c12 [trimethylangelicin]	–	–	–	–	85%	5%	9.56	12.86
